How the values were obtained:
[1] = test system: THP-1 human monocytic cell line; experiment: LPS-stimulated THP-1 macrophage cytokine production (LEGENDplex); format: cell-based; conditions: 10 ng/ml LPS; 30 and 150 μM; FIG. 3
Protocol: A specific anti-inflammatory effect or activity of a compound is proven, if the compound can decrease the production of one of IL-1B, IL-6 and TNFα in human THP1 macrophages following LPS stimulation, as determined by a standard assay: THP-1 human monocytic cell lines are treated with 100 nM of Phorbol 12-myristate 13-acetate (PMA) for 48 h to induce mature macrophage-like state. Cells are then stimulated with 100 ng/ml of LPS in the absence and presence of 500 μM of compound. After 6 hours, supernatants of treated and untreated cells are collected, and cytokine levels determined using the Human Inflammatory panel LEGENDplex Human Pro-inflammatory Chemokine Panel (Cat. No. 740118). A positive result is considered if the compound is capable of reduce or block the production of IL-1β, IL-6, and TNFα in human THP1 macrophages after LPS stimulation.
Following cells were treated with [10 ng/ml] LPS in the absence and presence 10, 100 and 500 μM of SCA-744. Cytokine levels were determined by LEGENDplex™ Human Inflammation Panel assay from BioLegend. The bar heights represent the concentration means compared to LPS alone of 3 independent experiments carried out in triplicates.
Cells were treated with 100 nM of Phorbol 12-myristate 13-acetate (PMA) for 48 h to induce mature macrophage-like state. Cells were then stimulated with 100 ng/ml of Lipopolysaccharides (LPS) in the absence and presence of 500 μM of SCA-744. After 6 hours, supernatants of treated and untreated cells were collected and the levels of three major pro-inflammatory cytokines TNF-α, IL-6 and IL-1ß were determined using the Human Inflammatory panel of LEGENDPLEX Multi-Analyte Flow assay.

[2] = Cytotoxicity, CellTiter-Glo cell viability; format: cell-based; conditions: human, HEK 293 cells (printed as HEK 293 neuroblastoma cell lines), 72 h treatment, read-out: EC50 cytotoxicity (cell viability, ATP)
Protocol: FIG. 19.: In-vitro assessment of SCA-744 (A) and SCA-754 (B) cytotoxicity. Experiments were performed using HEK 293 […] cell lines. The effect of SCA-744 and SCA-754 on cell viability was assessed using a standard ATP, CellTiter-Glo® Luminescent Cell Viability Assay following 72 hours treatment.
In vitro assessment of cytotoxicity of SCA-744 and SCA-754 in mammalian cells. 72 h following SCA-744 and SCA-754-treatment, cell viability was assessed using a standard ATP method, CellTiter-Glo® Luminescent Cell Viability Assay.

neuroblastoma cells = experiment: Protection from MPP+ induced oxidative stress, CellTiter-Glo viability; format: cell-based; conditions: for protection from MPP+ induced apoptosis / damage: 0.1-1000 μM, 12 h
Protocol: Several in-vivo and in-vitro studies find that MPP+ exerts oxidative stress on cells^22. MPP+×toxicity is based on its uptake into dopaminergic neurons. MPP+ accumulate into the mitochondria, inhibiting the complex-I leading to ATP depletion, increased reactive oxygen species (ROS) production, and apoptotic cell death^23. 12 h following MPP+ treatment and SCA-744 and CAL-X incubation, cell viability was assessed using a standard ATP method, CellTiter-Glo® Luminescent Cell Viability Assay.

Osteopontin (OPN) = experiment: 15N-1H HSQC NMR binding to osteopontin; conditions: HS compared with SCA-744
Protocol: In order to verify the predicted heparan sulfate mimicking activity of SCA-744, its physical interaction was probed with a prototypical HS-binding protein Osteopontin (OPN), a component of the extracellular matrix (ECM). To this end, NMR spectroscopy was used to directly probe the interaction and map the location of the interaction site along the protein backbone. The experimental strategy was as follows: First, ^15N-labelled OPN was prepared following well-established molecular biology technology techniques. Individual residue positions are directly monitored via the so-called ^15N-^1H Heteronuclear Single-Quantum Coherence (HSQC) spectroscopy, where individual cross peaks in the two-dimensional (2D) frequency spectrum corresponds to individual residue positions (amino acids) of the protein. Ligand binding changes the chemical environment of residues located in the binding site and leads to a change in the HSQC spectrum. Since the signal assignment is available, the residue positions which are affected by ligand binding can easily be identified by comparing HSQC spectra of the apo (ligand-free) and ligand-bound state of the protein (FIG. 7A). […] It is very convenient to analyze the chemical shift changes (induced by ligand binding) as a function of residue positions (FIG. 7B,C). Residues that display the largest chemical shift changes are typically part of the binding interface. […] Therefore, it can be concluded that SCA-744 and HS share the same ligand interaction sites and therefore are in competition for binding.

binding sites on OPN (chemical shift changes by residue) (Osteopontin (OPN))	Molecule	inhibition of LPS-induced TNF-α, IL-ß and IL-6 [1]	EC50 at 72 h [2] [mM]	MPP+ protection relative to SCA-744 (neuroblastoma cells; 0.2 μM versus 1 μM) [× times]	protection from MPP+ induced apoptosis / damage (neuroblastoma cells)	protection from MPP+ induced apoptosis / damage (neuroblastoma cells; listed as CAL-X)	concentration for MPP+ protection (neuroblastoma cells; 12 h following MPP+ treatment, CellTiter-Glo) [µM]
–	Cc1cc2c(O)c(c1)Cc1cc(S(=O)(=O)O)cc(c1O)Cc1cc(S(=O)(=O)O)cc(c1O)Cc1cc(S(=O)(=O)O)cc(c1O)C2 [SCA-754, Trisodium 25,26,27,28-tetrahydroxycalix(4)arene-23-methyl-5,11,17-trisulfonate]	Dose-dependent inhibition	1	5	protects against oxidative stress from MPP+ induced damage	protected neuroblastoma cells from MPP+ induced apoptosis	0.2
overlapping binding sites	heparan sulfate [HS, reference compound]	–	–	–	–	–	–

Source: patent publication US12714682B2, “Calixarene compounds and uses thereof” (UNIVERSITÄT WIEN, priority 2019, dated 2026)
